# Publication PMC11874377, “Fungal-derived methyldeoxaphomins target Plasmodium falciparum segregation through the inhibition of PfActin1” (Proceedings of the National Academy of Sciences of the …, 2025)
# Assays:
# [1] = test system: Plasmodium falciparum Dd2-Pol δ; assay: In vitro evolution of resistance, bulk culture populations; format: cell-based; conditions: after selection from 90 nM to 17 μM over 6.3 mo
# Procedure: We next sought to identify the molecular target of NPDG-F using in vitro evolution in a hypermutator line Dd2-Pol δ. This line was created to facilitate faster resistance development through the modification of the catalytic residues in DNA polymerase δ via CRISPR-Cas9 ([13]). Three populations of parasites grown in parallel were exposed to increasing concentrations of NPDG-F from the initial 90 nM to a final concentration of 17 μM over 6.3 mo. Once resistance (~4.2-fold) was identified in the 3 bulk culture populations, parasite DNA was extracted, followed by library preparation and whole-genome sequencing. […]
# The in vitro evolution was conducted using Plasmodium falciparum Dd2-Pol δ. […] Every 2 or 3 days, parasitemia was determined via Giemsa smear and reset to 2% (for a 3-day split, 1.6 X108 parasites) or 3% (for a 2-day split, 2.4 X108). […] Resistance development was monitored every 3 months through SYBR green I- based EC50 dose response assay as described above. […]
# Parasite genomic DNA was extracted from the parent and the resistant lines using DNeasy Blood & Tissue Kit (Qiagen). […] The pooled libraries were sequenced on Illumina NovaSeq 6000 with S4 200 chemistry to generate paired end reads with 100bp in length.
# Reads were aligned to Plasmodium falciparum reference genome 3D7 (PlasmoDB v13.0) using an in-house pipeline (Cowell & Winzeler, 2019). […]
# Dd2 = assay: Stage specific activity assay; format: cell-based, Plasmodium falciparum; conditions: 5 × EC50
# Procedure: To corroborate the findings identified through the in vitro evolution of resistance, the activity of NPDG-F was assessed in a stage-dependent manner in vitro. Because actin proteins are needed for chromosome separation, we anticipated that parasites treated with NPDG-F would arrest late in the cell cycle. The parasite strain Dd2 was first synchronized and treated in ring (~6 h post invasion, HPI), trophozoite (~18 HPI), early schizont (~30 HPI), or late schizont (~42 HPI). Cultures were then observed in each condition every 12 h until reinvasion occurred via Giemsa stain and flow cytometry. When added in early ring, NPDG-F treated cultures proceeded normally through the intraerythrocytic life cycle until late schizogony (Fig. 4A). […]
# EC50s. […] Dose-response curves were then generated for the available conditions where EC50s could be determined. The fractional inhibitor concentration of both compounds was then determined as described (Fivelman et al., 2004) for the available points and graphed on a scale of 0-1 also using Graphpad Prism version 10.
# Cytotoxicity was assessed using an MTS (3-(4,5-Dimethylthiazol-2-yl)-5-(3-carboxymethoxyphenyl)-2-(4-sulfophenyl)-2H-tetrazolium) absorbance assay with human HepG2 hepatoma cells. […] Following a 48-h incubation with compounds, MTS solution was added to wells and absorbance was read after 2-4 h on a Synergy Neo2 multimode reader (BioTek Winsooki, VT). […]
smiles,measurement,setting,value
C=C1C(C)C2C(Cc3ccccc3)NC(=O)C23C(=O)C=CC(O)C(O)C(C)CC(C)CC=CC3C1O (stereo not drawn) [Methyldeoxaphomin NPDG-F],resistance in the 3 bulk culture populations,[1],~ 4.2 fold
same,effect when added after 6 HPI,"Dd2; 18, 30 or 42 HPI",persisted only in a minor population of schizonts
same,effect when added in early ring,"Dd2; ~6 HPI, synchronous Dd2",complete life cycle inhibition
